Patent publication US20050272098A1, “Quantitation of endothelial microparticles” (priority 2004, published 2005)
Several values for one entry are separate records, joined by “and”; a condition that tells them apart may be missing. Identical values can stand only once.

Tests used:
HCAEC = test: Release of CAM-specific EMP from TNF-α-activated HCAEC, two-color flow cytometry with TruCount beads; type: cell-based, human; details: 24 hours
Procedure: HCAECs were purchased from Cambrex Bio Science (Walkersville, Md.) and cultured according to the supplier's specifications. All experiments were performed on confluent cells. EC were treated with 10 ng/mL TNF-α alone or with the addition of fluvatstain (0.1 μmol/mL) or ROK inhibitor, Y-27632 (10 μmol M/L). Controls were un-treated. After 24 hours culture supernatants from flasks containing HCAEC were collected and centrifuged for 30 min at 17,570×g, (4° C.). Pellets were re-suspended in 1 mL of PBS and were analyzed on the same day. For single platform method, 3 μL each of FITC-conjugated and PE-conjugated monoclonal antibodies against the above mentioned CAMs plus 50 μL of re-suspended pellet were added to tubes (two antibodies/tube) preloaded with fluorescent TruCount™ bead lyophilized pellets (Becton Dickinson Biosciences, San Jose, Calif.). Tubes were incubated for 20 min at room temperature. Analysis of EMPs was performed using a FACScan Flow Cytometer (Becton Dickinson Biosciences, San Jose, Calif.). The EMPs were excited with 488 nm light from a 15 mW argon laser. Logarithmic green and red fluorescences of FITC and PE were measured through 530/30 nm and 585/42 nm bandpass filters, respectively. Data from 2,000 events were acquired and analyzed with the use of CELLQuest™ software (version 3.3, Becton Dickinson). The absolute number of EMPs was calculated from the appropriate dot plot values entered into the following formula: [formula] The total number of beads per tube is supplied by the manufacturer and varies among lot numbers. RhoA Activity Statistical analysis was performed using SPSS 10.0.7 statistical software (SPSS Inc., Chicago, Ill.). Values are stated as mean±SEM. One-way ANOVA was used to compare means from three or more groups. In cases where the data were not normally distributed, the Mann-Whitney rank sum test was used. A value of p<0.05 was considered as significant for all tests.

RhoA = RhoA activity pull-down assay (Rhotekin Rho Binding Domain agarose, western blot) in HCAEC; type: cell-based, human; details: TNF-α 10 ng/mL, 24 hours
Procedure: HCAECs were purchased from Cambrex Bio Science (Walkersville, Md.) and cultured according to the supplier's specifications. All experiments were performed on confluent cells. EC were treated with 10 ng/mL TNF-α alone or with the addition of fluvatstain (0.1 μmol/mL) or ROK inhibitor, Y-27632 (10 μmol M/L). Controls were un-treated. After 24 hours culture supernatants from flasks containing HCAEC were collected and centrifuged for 30 min at 17,570×g, (4° C.). Pellets were re-suspended in 1 mL of PBS and were analyzed on the same day. RhoA activity was determined by a pull-down assay. The cell lysates were incubated with Rhotekin Rho Binding Domain agarose for 45 minutes. The agarose beads were collected and electrophoresed in 8-16% SDS-PAGE gel (Cambrex, Rockland, Me.). GDP and GTP-labeling of cell lysates served as negative and positive controls, respectively. Western blotting was performed with RhoA antibody at a dilution of 1:200. The blot densities were analyzed with Mocha Image Analysis (version 1.2.10).

[1] = HCAEC, TNF-α 10 ng/mL plus Fluvastatin 0.1 μM/L, mean ± SEM
[2] = HCAEC, TNF-α 10 ng/mL plus Fluvastatin 0.1 μM/L, mean ± SEM, listed as Flu
[3] = HCAEC, TNF-α 10 ng/mL plus Y-27632 (10 μmol M/L), mean ± SEM
[4] = HCAEC, TNF-α 10 ng/mL alone, mean ± SEM, six experiments
[5] = HCAEC, TNF-α 10 ng/mL, versus control, not significant

Molecule: CC(C)n1c(/C=C/C(O)CC(O)CC(=O)O)c(-c2ccc(F)cc2)c2ccccc21 (centres unmarked) [Fluvastatin]
- absolute count of EMP, CD51 (Vitronectin) (HCAEC; [1]): 43 ±7.3 ×10^6/mL
- absolute count of EMP, CD62E (ELAM) (HCAEC; [1]): 80 ± 7 ×10^6/mL
- absolute count of EMP, CD105 (Endoglin) (HCAEC; [1]): 45±7.6 ×10^6/mL
- absolute count of EMP, CD31 (PECAM-1) (HCAEC; [2]): 231 ± 80 ×10^6/mL
- absolute count of EMP, CD51 (Vitronectin) (HCAEC; [2]): 43 ± 7 ×10^6/mL
- absolute count of EMP, CD 54 (ICAM-1) (HCAEC; [2]): 125 ± 35 ×10^6/mL
- absolute count of EMP, CD105 (Endoglin) (HCAEC; [2]): 45 ± 8 ×10^6/mL
- absolute count of EMP, CD106 (VCAM-1) (HCAEC; [2]): 167 ± 45 ×10^6/mL
- suppression of CD62+ EMP (HCAEC; TNF-α-activated HCAEC, versus TNF-α alone, not statistically significant): 19%

Molecule: C[C@@H](N)[C@H]1CC[C@H](C(=O)Nc2ccncc2)CC1 [Y-27632]
- absolute count of EMP, CD51 (Vitronectin) (HCAEC; [3]): 44 ± 10 ×10^6/mL
- absolute count of EMP, CD62E (ELAM) (HCAEC; [3]): 65 ± 13 ×10^6/mL
- absolute count of EMP, CD105 (Endoglin) (HCAEC; [3]): 56±13 ×10^6/mL

Molecule: tumor necrosis factor-α [TNF-α]
- RhoA activation (RhoA): induced
- absolute count of EMP, CD31 (PECAM-1) (HCAEC; [4]): 233±77 ×10^6/mL
- absolute count of EMP, CD51 (Vitronectin) (HCAEC; [4]): 76.4±46 ×10^6/mL and 76 ± 46 ×10^6/mL
- absolute count of EMP, CD 54 (ICAM-1) (HCAEC; [4]): 129 ± 44 ×10^6/mL
- absolute count of EMP, CD62E (ELAM) (HCAEC; [4]): 99 ± 3 ×10^6/mL
- absolute count of EMP, CD105 (Endoglin) (HCAEC; [4]): 124±34 ×10^6/mL
- increase of CD54 positive EMP (HCAEC; [5]): 57%
- increase of CD62 positive EMP (HCAEC; [5]): 15%
